# Assay results: US8193203B2, “Bicyclic compounds having activity at the CXCR4 receptor” (Allergan, Inc., priority 2008, dated 2012)
# Molecular target: T1, human CXCR4 receptor (Homo sapiens, UniProt P61073)
# T1 construct: expressed in transfected cells
# Assay: Measurement of intracellular Ca+2 responses (FLIPR), antagonism of the SDF-1α response
# Format: cell-based
# Details: for IC50: HEK-Gqi5 cells stably expressing human CXCR4, Fluo-4 FLIPR, antagonism of SDF-1α 1.9 nM (EC65); for CXCR4 (% Inh): percent antagonism of SDF-1α 1.9 nM (EC65) response, HEK-Gqi5 human CXCR4 cells, value in brackets
# Procedure: Measurement of Intracellular Ca^+2 Responses for CXCR4 Compounds
# HEK-Gqi5 cells stably expressing the human CXCR4 receptor were utilized for these studies. The growth media for the CXCR4 receptor expressing cell line was DMEM high glucose medium supplemented with 10% fetal bovine serum (FBS), 1% antibiotic-antimycotic, 50 ug/ml hygromycin B, and 400 μg/ml geneticin. Ten thousand cells per well were plated into 384-well poly-D-lysine coated plates one day prior to use. On the day of the experiment, the cells were washed twice with Hank's Balanced Salt Solution supplemented with 20 mM hepes (HBSS/hepes buffer). The cells were then dye loaded with 2 uM Fluo-4 diluted in the HBSS/Hepes buffer and incubated at 37° C. for 40 minutes. Extracellular dye was removed by washing the cell plates four times prior to placing the plates in the FLIPR (Fluorometric Imaging Plate Reader, Molecular Devices). Ligands were diluted in HBSS/Hepes buffer and prepared in 384-well microplates. The positive control, stromal-cell derived factor-1 (SDF-1α), was diluted in HBSS/Hepes buffer with 4 mg/ml fatty acid free bovine serum albumin. Two drug additions were made by the FLIPR. The first drug addition was the test drug in concentrations ranging from 2.44 nM to 40,000 nM. After this addition, fluorescent measurements were taken. Any calcium release in response to this drug addition represents agonist activity of the compounds. The second drug addition was SDF-1α at a final concentration of 1.9 nM (EC65). Fluorescence measurements were also taken after this second drug addition and were used to determine the ability of the test compounds to antagonize the SDF-1α response. Results were expressed as EC50 and efficacy values, as well as IC50 and percent antagonism values. As controls, SDF-1α (CXCR4 agonist) and AMD3100 (CXCR4 antagonist) dose-response curves were also determined in each study.
# T1 sequence (P61073 whole entry): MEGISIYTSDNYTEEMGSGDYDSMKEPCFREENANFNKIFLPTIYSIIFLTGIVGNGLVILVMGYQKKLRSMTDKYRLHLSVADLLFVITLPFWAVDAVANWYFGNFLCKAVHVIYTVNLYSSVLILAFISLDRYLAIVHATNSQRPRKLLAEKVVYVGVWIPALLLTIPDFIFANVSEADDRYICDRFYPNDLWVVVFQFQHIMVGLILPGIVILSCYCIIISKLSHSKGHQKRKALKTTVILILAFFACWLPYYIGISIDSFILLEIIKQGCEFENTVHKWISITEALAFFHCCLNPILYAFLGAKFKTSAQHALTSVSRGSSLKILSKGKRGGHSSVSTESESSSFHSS
IC50 (values in nM) [nM],CXCR4 (% Inh) [%],IC50 (values given in μM) [nM],"IC50 (unit of the source corrected, heading: CXCR4 IC50, values given in μM) [nM]",SMILES
215,97,,,"CNCCCCNc1nc(NC2CCN(Cc3c(OC)cccc3N(C)C)CC2)c2ccccc2n1 [Compound 102, N4-(1-(2-(Dimethylamino)-6-methoxybenzyl)piperidin-4-yl)-N2-(4-(methylamino)butyl)quinazoline-2,4-diamine]"
,82,4100,,"COc1cccc(N(C)C)c1CN1CCC(Nc2nc(N3CC(CN(C)C(=O)OC(C)(C)C)C3)nc3ccccc23)CC1 [Compound 103, tert-Butyl (1-(4-(1-(2-(Dimethylamino)-6-methoxybenzyl)piperidin-4-ylamino)quinazolin-2-yl)azetidin-3-yl)methyl(methyl)carbamate]"
,97,1000,,"CNCC1CN(c2nc(NC3CCN(Cc4c(OC)cccc4N(C)C)CC3)c3ccccc3n2)C1 [Compound 104, N-(1-(2-(Dimethylamino)-6-methoxybenzyl)piperidin-4-yl)-2-(3-((methylamino)methyl)azetidin-1-yl)quinazolin-4-amine]"
771,98,,,"CCNCCNc1nc(NC2CCN(Cc3c(OC)cccc3N(C)C)CC2)c2ccccc2n1 [Compound 105, N4-(1-(2-(Dimethylamino)-6-methoxybenzyl)piperidin-4-yl)-N2-(2-(ethylamino)ethyl)quinazoline-2,4-diamine]"
,73,2300,,"COc1cccc(N(C)C)c1CN1CCC(Nc2nc(NCC3CCN(C(=O)OC(C)(C)C)C3)nc3ccccc23)CC1 (stereo not shown) [Compound 106, tert-Butyl 3-((4-(1-(2-(Dimethylamino)-6-methoxybenzyl)piperidin-4-ylamino)quinazolin-2-ylamino)methyl)pyrrolidine-1-carboxylate]"
653,96,,,"CCN1CCC(CNc2nc(NC3CCN(Cc4c(OC)cccc4N(C)C)CC3)c3ccccc3n2)C1 (stereo not shown) [Compound 107, N4-(1-(2-(Dimethylamino)-6-methoxybenzyl)piperidin-4-yl)-N2-((1-ethylpyrrolidin-3-yl)methyl)quinazoline-2,4-diamine]"
,89,2000,,"COc1cccc(N(C)C)c1CN1CCC(Nc2nc(NCC3CN(C(=O)OC(C)(C)C)C3)nc3ccccc23)CC1 [Compound 108, tert-Butyl 3-((4-(1-(2-(Dimethylamino)-6-methoxybenzyl)piperidin-4-ylamino)quinazolin-2-ylamino)methyl)azetidine-1-carboxylate]"
155,98,,,"COc1cccc(N(C)C)c1CN1CCC(Nc2nc(NCC3CNC3)nc3ccccc23)CC1 [Compound 109, N2-(Azetidin-3-ylmethyl)-N4-(1-(2-(dimethylamino)-6-methoxybenzyl)piperidin-4-yl)quinazoline-2,4-diamine]"
,81,2200,,"COc1cccc(N(C)C)c1CN1CCC(Nc2nc(NC[C@H]3CCN(C(=O)OC(C)(C)C)C3)nc3ccccc23)CC1 [Compound 110, (R)-tert-Butyl 3-((4-(1-(2-(Dimethylamino)-6-methoxybenzyl)piperidin-4-ylamino)quinazolin-2-ylamino)methyl)pyrrolidine-1-carboxylate]"
,98,,224,"COc1cccc(N(C)C)c1CN1CCC(Nc2nc(NC[C@H]3CCNC3)nc3ccccc23)CC1 [Compound 111, (S)—N-4-(1-(2-(Dimethylamino)-6-methoxybenzyl)piperidin-4-yl)-N2-(pyrrolidin-3-ylmethyl)quinazoline-2,4-diamine]"
,77,2100,,"COc1cccc(N(C)C)c1CN1CCC(Nc2nc(NC[C@@H]3CCN(C(=O)OC(C)(C)C)C3)nc3ccccc23)CC1 [Compound 112, (S)-tert-Butyl 3-((4-(1-(2-(Dimethylamino)-6-methoxybenzyl)piperidin-4-ylamino)quinazolin-2-ylamino)methyl)pyrrolidine-1-carboxylate]"
